{"source": "patent US10646528B2", "about": "“Method for preparing extract of genus Panax including wild ginseng or ginseng, or cambial meristematic cells derived from genus panax or extract thereof containing rare ginsenosides in high quantity” (WELLKEY HOLDINGS LIMITED, priority 2014, dated 2020)", "system": "C57BL/6J mice", "test": "oral glucose tolerance test (OGTT)", "type": "in vivo", "details": "2 g/kg D-glucose oral", "method": "The anti-diabetic effect of the wild ginseng CMCs prepared in Example 2 was examined by an oral glucose tolerance test OGTT. Wild ginseng CMCs were heat-treated at 95° C. for 48 hours, and an extract obtained by extracting the CMCs with 70% ethanol was administered orally. C57BL/6J mice (8-week-old, male) were fasted overnight. The weights and blood glucose levels of the C57BL/6J mice were measured, and then 2 g/kg of D-glucose was administered orally to the mice. At this time, the mice were fed with drinking water, but were not fed with feed. A change in the blood glucose level was measured at […] for 2 hours.\nThe […] was compared with resistant maltodextrin (RMD) and a red ginseng extract (RG-200), which are known as health supplements in the anti-diabetic field."}
{"substance": "Resistant maltodextrin [RMD]", "values": [{"measurement": "Blood glucose level", "setting": "Time 0, 2 g/kg-treated diabetic group", "result": 169, "unit": "mg/dL"}, {"measurement": "Blood glucose level", "setting": "Time 30, 2 g/kg-treated diabetic group", "result": 485, "unit": "mg/dL"}, {"measurement": "Blood glucose level", "setting": "Time 60, 2 g/kg-treated diabetic group", "result": 350, "unit": "mg/dL"}, {"measurement": "Blood glucose level", "setting": "Time 120, 2 g/kg-treated diabetic group", "result": 282, "unit": "mg/dL"}]}
